# Test results as given in patent US7407767B2, “Method of screening remedy for heart disease and medicinal composition for treating heart disease” (Ono Pharmaceutical Co., Ltd., priority 2003, dated 2008).
# System: PD-1-deficient mouse serum
# Test: Competition with recombinant cardiac troponin I in western blotting of normal mouse heart extract
# Format: binding
# Conditions: recombinant cardiac troponin I added at 1, 10 and 100 μg/ml
# Description: PD-1-deficient mouse serum (mouse #101, #104 and #117) was used for western blotting of normal mouse heart extract. For the competition assay, recombinant cardiac troponin I was added to immune blot solution at 1, 10, and 100 μg/ml. The 30-kDa antigen recognized by PD-1-deficient mouse serum was depleted by immunoprecipitation with antibodies to anti-myocardial troponin I and was recoverable from the pellet fraction (FIG. 2 (b)).
# Thus, the band was confirmed to consist solely of cardiac troponin I.
substance,measurement,value
recombinant cardiac troponin I: mouse cardiac troponin I protein obtained by PreScission protease cleavage of a GST-fusion recombinant protein,intensity of the 30-kDa band recognized by PD-1-deficient mouse serum,weakened in a dose-dependent manner
